{"source": "ChEMBL document CHEMBL1201862", "about": "“PubChem BioAssay data set” (2004)", "key": {"[1]": {"target": "T1, Sentrin-specific protease 1 (Homo sapiens, UniProt Q9P0U3)", "T1 sequence (Q9P0U3 whole entry)": "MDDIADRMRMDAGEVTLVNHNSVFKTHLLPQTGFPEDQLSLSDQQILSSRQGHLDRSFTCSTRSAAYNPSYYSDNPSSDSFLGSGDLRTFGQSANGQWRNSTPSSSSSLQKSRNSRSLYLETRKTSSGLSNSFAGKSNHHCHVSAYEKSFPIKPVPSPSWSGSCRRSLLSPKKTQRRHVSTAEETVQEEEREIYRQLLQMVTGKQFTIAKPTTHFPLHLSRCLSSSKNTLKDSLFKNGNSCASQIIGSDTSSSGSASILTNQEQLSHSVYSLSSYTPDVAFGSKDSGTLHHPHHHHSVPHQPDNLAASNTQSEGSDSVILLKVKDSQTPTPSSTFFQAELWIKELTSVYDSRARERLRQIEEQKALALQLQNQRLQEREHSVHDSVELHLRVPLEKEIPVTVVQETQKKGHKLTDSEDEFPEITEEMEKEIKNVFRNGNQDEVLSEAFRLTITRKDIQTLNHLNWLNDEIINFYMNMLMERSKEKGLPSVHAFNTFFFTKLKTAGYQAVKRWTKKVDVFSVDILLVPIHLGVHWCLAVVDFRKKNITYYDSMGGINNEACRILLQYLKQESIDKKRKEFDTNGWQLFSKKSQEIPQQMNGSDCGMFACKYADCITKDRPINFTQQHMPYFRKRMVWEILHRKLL", "test": "potency of human SENP1 inhibitors, dose response, biochemical, kinetic FRET (AID 651697)", "assay_type": "functional", "details": "read-out: IC50_Mean"}, "[2]": {"target": "T1, Sentrin-specific protease 1", "test": "Dose response confirmation of small molecule inhibitors of the catalytic domain of the SUMO protease, SENP1 in a FRET assay.", "assay_type": "functional", "details": "read-out: IC50_Mean"}, "Large T antigen": {"target": "Large T antigen (Simian virus 40, UniProt P03070)", "sequence (P03070 whole entry)": "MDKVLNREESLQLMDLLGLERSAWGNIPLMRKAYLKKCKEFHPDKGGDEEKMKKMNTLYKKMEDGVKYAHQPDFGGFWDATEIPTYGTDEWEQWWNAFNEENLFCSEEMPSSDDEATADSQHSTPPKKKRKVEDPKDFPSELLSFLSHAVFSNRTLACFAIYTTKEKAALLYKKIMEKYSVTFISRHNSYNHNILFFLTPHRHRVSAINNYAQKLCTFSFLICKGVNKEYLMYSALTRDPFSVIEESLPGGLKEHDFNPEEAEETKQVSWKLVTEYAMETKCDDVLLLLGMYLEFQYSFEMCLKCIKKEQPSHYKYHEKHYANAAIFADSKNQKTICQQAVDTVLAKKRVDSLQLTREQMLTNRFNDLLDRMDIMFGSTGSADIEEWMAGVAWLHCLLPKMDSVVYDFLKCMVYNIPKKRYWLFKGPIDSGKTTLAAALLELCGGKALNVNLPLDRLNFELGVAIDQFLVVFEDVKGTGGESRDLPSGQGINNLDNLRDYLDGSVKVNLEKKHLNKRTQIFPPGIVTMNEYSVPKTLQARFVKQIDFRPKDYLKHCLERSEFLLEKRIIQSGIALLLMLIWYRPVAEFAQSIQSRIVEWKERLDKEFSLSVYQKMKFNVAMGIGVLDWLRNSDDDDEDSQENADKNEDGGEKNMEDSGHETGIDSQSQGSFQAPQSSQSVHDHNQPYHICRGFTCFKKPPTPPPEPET", "assay_type": "functional, Betapolyomavirus macacae"}, "[3]": {"target": "T2, Rac GTPase-activating protein 1 (Homo sapiens, UniProt Q9H0H5)", "T2 sequence (Q9H0H5 whole entry)": "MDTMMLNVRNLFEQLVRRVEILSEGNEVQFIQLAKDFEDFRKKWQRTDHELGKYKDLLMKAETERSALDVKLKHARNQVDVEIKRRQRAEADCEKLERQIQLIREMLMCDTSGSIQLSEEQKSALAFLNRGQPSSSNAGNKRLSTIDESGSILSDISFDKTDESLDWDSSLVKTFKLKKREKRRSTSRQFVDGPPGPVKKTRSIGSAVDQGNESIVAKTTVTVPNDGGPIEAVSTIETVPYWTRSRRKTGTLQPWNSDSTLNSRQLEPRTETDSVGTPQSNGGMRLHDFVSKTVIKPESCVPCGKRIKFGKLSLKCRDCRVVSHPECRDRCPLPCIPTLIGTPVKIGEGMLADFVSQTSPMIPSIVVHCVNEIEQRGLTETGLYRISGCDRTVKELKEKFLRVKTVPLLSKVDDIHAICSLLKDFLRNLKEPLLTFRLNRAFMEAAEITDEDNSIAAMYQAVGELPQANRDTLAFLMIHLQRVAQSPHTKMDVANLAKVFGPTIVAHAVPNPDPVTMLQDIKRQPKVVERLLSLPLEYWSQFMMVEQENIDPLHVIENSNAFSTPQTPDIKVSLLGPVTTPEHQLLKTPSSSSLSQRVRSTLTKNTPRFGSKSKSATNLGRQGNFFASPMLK", "test": "MgcRacGAP GTPase-activating activity inhibitors, confirmation, biochemical, ADP Hunter fluorescence, primary and confirmatory (AID 624330)", "assay_type": "functional"}, "[4]": {"test": "Vero E6 cell cytotoxicity, dose response, cytotoxicity control for non-replicating M. tuberculosis project, secondary assay (AID 492998)", "assay_type": "functional, VeroE6", "details": "Vero C1008"}, "[5]": {"test": "THP-1 cell cytotoxicity, dose response, cytotoxicity control for non-replicating M. tuberculosis project (AID 489025)", "assay_type": "functional"}, "[6]": {"test": "HepG2 cell cytotoxicity, dose response, cytotoxicity control for non-replicating M. tuberculosis project (AID 489018)", "assay_type": "functional", "details": "Mycobacterium tuberculosis"}, "Vero": {"system": "Vero", "test": "cells", "assay_type": "functional", "details": "Chlorocebus sabaeus"}, "[7]": {"test": "insulin promoter down-regulators in MIN6 cells, imaging, high-content screening, mouse beta cells (AID 1628)", "assay_type": "functional"}, "[8]": {"test": "cytotoxicity in MIN6 insulinoma cells, dose response, cytotoxicity control, cell-based, mouse insulinoma (AID 2122);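 further: confirmatory high-throughput counterscreen run to flag cytotoxic compounds; mouse MIN-6 beta cells carrying an insulin promoter eGFP reporter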", "assay_type": "functional"}, "[9]": {"target": "DNA dC->dU-editing enzyme APOBEC-3A (Homo sapiens, UniProt P31941)", "sequence (P31941 whole entry)": "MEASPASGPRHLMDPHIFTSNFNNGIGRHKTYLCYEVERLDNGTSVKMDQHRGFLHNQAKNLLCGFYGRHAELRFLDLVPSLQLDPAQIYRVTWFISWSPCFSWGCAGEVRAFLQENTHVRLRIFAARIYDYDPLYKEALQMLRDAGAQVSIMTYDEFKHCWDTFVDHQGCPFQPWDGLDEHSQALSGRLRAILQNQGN", "test": "Dose Response confirmation of small molecule APOBEC3A DNA Deaminase Inhibitors via a fluorescence-based single-stranded DNA deaminase assay. [Related pubchem assays (depositor defined):AID493011, AID493024]", "assay_type": "functional"}, "[10]": {"target": "DNA dC->dU-editing enzyme APOBEC-3G (Homo sapiens, UniProt Q9HC16)", "sequence (Q9HC16 whole entry)": "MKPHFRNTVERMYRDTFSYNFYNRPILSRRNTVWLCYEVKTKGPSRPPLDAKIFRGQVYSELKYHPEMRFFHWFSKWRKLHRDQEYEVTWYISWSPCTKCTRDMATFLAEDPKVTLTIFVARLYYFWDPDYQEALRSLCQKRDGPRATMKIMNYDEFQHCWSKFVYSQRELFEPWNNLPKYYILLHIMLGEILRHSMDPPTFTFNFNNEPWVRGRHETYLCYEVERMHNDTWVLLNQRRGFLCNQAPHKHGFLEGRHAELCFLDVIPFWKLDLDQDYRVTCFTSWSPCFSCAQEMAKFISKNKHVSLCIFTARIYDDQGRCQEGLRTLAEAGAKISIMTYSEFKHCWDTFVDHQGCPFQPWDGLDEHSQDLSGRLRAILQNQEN", "assay_type": "functional"}, "Cytochrome P450 2D6": {"target": "Cytochrome P450 2D6 (Homo sapiens, UniProt P10635)", "sequence (P10635 whole entry)": "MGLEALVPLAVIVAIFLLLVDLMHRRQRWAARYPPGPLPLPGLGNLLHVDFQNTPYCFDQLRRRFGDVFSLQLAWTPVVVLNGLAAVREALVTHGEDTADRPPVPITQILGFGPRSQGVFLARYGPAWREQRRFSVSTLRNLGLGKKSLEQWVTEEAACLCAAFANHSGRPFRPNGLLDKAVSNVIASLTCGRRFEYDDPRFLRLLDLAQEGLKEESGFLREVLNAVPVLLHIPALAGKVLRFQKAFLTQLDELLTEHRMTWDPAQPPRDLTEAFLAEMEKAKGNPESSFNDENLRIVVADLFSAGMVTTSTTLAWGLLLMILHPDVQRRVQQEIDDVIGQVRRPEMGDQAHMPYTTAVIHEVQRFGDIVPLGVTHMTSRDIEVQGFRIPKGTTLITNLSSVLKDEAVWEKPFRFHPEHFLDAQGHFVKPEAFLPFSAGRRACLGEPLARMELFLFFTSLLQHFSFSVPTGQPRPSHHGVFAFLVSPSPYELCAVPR"}}, "note": "Active and inactive are the calls of the source.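 Wherever AC50 is given: CYP2D6 member of a cytochrome P450 panel assay.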", "data": [{"smiles": "CCOc1cc(/C=C2\\N=C3CCCCCN3C2=O)ccc1O", "values": [{"measurement": "IC50", "setting": "[1]", "result": "9.57 µM (active)"}, {"measurement": "IC50", "setting": "[2]", "result": "7.67 µM (active)"}, {"measurement": "IC50", "setting": "Large T antigen", "result": "16.9 µM (active)"}, {"measurement": "IC50", "setting": "[3]", "result": "39.9 µM (active)"}]}, {"smiles": "CC/C(=C\\c1oc2cc3ccccc3cc2[n+]1CC)Nc1ccccc1", "values": [{"measurement": "CC50", "setting": "[4]", "result": "> 20 µM (active)"}, {"measurement": "CC50", "setting": "[5]", "result": "16 µM (active)"}, {"measurement": "CC50", "setting": "[6]", "result": "> 20 µM (active)"}, {"measurement": "CC50", "setting": "Vero", "result": "18.7 µM (active)"}]}, {"smiles": "C=CCC(C#Cc1ccccc1)[N+](C)(C)CC=C", "note": "(centres undefined)", "values": [{"measurement": "IC50", "setting": "[7]", "result": "8.7 µM (active)"}, {"measurement": "IC50", "setting": "[8]", "result": "10.7 µM (inactive)"}]}, {"smiles": "CCN1C(NCc2ccc(OC)cc2)=N[C@@H](c2ccccc2)C(C(=O)OC)=C1C", "values": [{"measurement": "IC50", "setting": "[9]", "result": "4.07 µM (active)"}, {"measurement": "IC50", "setting": "[10]", "result": "5.66 µM (active)"}]}, {"smiles": "Cc1ccc(NC(=O)CSc2nnc(-c3ccncc3)o2)cc1", "values": [{"measurement": "AC50", "setting": "Cytochrome P450 2D6", "result": "inconclusive"}]}, {"smiles": "CC(=O)Nc1ccc(S(=O)(=O)Nc2nc3ccccc3nc2Nc2ccc(O)cc2)cc1", "values": [{"measurement": "IC50", "setting": "Large T antigen", "result": "9.57 µM (active)"}]}]}
